Results reported in ChEMBL document CHEMBL1649088, “Structural optimization of azadipeptide nitriles strongly increases association rates and allows the development of selective cathepsin inhibitors” (J Med Chem, 2011).
Active and inactive are the calls of the source. The rule behind the calls is not given here.

Columns and labels:
Cathepsin S = Cathepsin S (Homo sapiens, UniProt P25774); experiment: Inhibition of human cathepsin S after 30 mins by spectrophotometric assay
Cathepsin B = Cathepsin B (Homo sapiens, UniProt P07858); experiment: Inhibition of human recombinant cathepsin B after 30 mins by spectrophotometric assay
Cathepsin K = target: T1, Cathepsin K (Homo sapiens, UniProt P43235); experiment: Inhibition of human recombinant cathepsin K after 30 mins by spectrophotometric assay
T1 sequence (P43235 whole entry): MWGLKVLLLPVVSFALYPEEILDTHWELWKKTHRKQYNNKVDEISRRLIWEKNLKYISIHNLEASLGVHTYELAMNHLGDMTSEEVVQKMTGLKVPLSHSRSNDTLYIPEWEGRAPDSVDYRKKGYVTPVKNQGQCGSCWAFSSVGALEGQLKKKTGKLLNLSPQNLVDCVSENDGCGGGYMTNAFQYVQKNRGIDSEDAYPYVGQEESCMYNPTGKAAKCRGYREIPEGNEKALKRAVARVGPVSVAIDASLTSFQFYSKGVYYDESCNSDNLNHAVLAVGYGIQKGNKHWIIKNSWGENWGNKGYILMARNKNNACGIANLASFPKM

Procathepsin L = Procathepsin L (Homo sapiens, UniProt P07711); experiment: Inhibition of human recombinant cathepsin L after 30 mins by spectrophotometric assay
Chain of Procathepsin L (P07711 whole entry): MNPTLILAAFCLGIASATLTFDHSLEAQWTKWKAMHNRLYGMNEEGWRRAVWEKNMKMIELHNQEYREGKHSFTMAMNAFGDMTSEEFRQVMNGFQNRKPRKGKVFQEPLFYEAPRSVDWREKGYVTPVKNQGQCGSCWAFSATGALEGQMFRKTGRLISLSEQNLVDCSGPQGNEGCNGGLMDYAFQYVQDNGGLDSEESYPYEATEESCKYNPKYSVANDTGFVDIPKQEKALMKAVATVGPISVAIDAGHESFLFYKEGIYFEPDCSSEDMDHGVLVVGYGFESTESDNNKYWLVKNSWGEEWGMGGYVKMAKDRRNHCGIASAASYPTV

Homo sapiens [1] = species on record: Homo sapiens; experiment: Selectivity ratio, ratio of Ki for human recombinant cathepsin L to Ki for human recombinant cathepsin K
Homo sapiens [2] = species on record: Homo sapiens; experiment: Selectivity ratio, ratio of Ki for human cathepsin S to Ki for human recombinant cathepsin K
[3] = target: T2, Cathepsin K (Homo sapiens) (UniProt P43235); experiment: Reversible inhibition of human recombinant cathepsin K at 300 nM preincubated for 30 mins by spectrophotometric assay
T2 sequence (whole entry): T1 sequence (P43235 whole entry)

Homo sapiens [4] = species on record: Homo sapiens; experiment: Selectivity ratio, ratio of Ki for human recombinant cathepsin B to Ki for human recombinant cathepsin K

Chain of Cathepsin S (P25774 whole entry): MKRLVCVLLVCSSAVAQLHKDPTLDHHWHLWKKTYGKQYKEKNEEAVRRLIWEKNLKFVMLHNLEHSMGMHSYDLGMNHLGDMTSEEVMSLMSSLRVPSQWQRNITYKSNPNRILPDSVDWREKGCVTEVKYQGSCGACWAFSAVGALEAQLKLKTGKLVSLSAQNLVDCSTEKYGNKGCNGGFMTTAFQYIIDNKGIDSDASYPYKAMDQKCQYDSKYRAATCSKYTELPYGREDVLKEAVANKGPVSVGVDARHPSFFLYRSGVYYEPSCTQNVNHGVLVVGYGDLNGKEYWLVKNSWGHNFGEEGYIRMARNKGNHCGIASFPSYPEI

| SMILES | Ki (Cathepsin S) | Ki (Cathepsin B) | Ki (Cathepsin K) | Ki (Procathepsin L) | Ratio Ki (Homo sapiens [1]) | Ratio Ki (Homo sapiens [2]) | Activity [3] | Ratio Ki (Homo sapiens [4]) |
| --- | --- | --- | --- | --- | --- | --- | --- | --- |
| CC(C)C[C@H](NC(=O)c1ccc(-c2noc(-c3cccs3)n2)cc1)C(=O)NCC#N | 140 nM | > 22000 nM | 2.9 nM | 940 nM | 300 | – | – | – |
| C[C@H](NC(=O)OCc1ccccc1)C(=O)N(C)N(C)C#N | 9.1 nM | 55 nM | 33 nM | 480 nM | – | – | – | – |
| CC(C)C[C@@H](C(=O)N(C)N(C)C#N)N(C)C(=O)c1ccc(-c2noc(-c3cccs3)n2)cc1 | 140 nM | 510 nM | 0.63 nM | 2700 nM | 4300 | 200 | Active | 800 |
| CC(C)C[C@@H](C(=O)NCC#N)N(C)C(=O)c1ccc(-c2noc(-c3cccs3)n2)cc1 | > 22000 nM | > 22000 nM | 270 nM | > 22000 nM | – | – | – | – |
| CN(C#N)N(C)C(=O)CNC(=O)OCc1ccccc1 | 800 nM | 840 nM | 260 nM | 860 nM | – | – | – | – |
| CC(C)C[C@H](NC(=O)Nc1ccc(-c2noc(-c3cccs3)n2)cc1)C(=O)NCC#N | 180 nM | > 22000 nM | 34 nM | 4700 nM | – | – | – | – |
| CC(C)[C@H](NC(=O)OCc1ccccc1)C(=O)N(C)N(C)C#N | 1.5 nM | 4.3 nM | 0.87 nM | 1.5 nM | – | – | – | – |
| CN(C#N)N(C)C(=O)[C@H](Cc1ccc(O)cc1)NC(=O)OCc1ccccc1 | 0.86 nM | 0.38 nM | 0.16 nM | 0.36 nM | – | – | – | – |

Compounds with a lower Ki (Cathepsin S), results first:

| Ki (Cathepsin S) | Ki (Cathepsin B) | Ki (Cathepsin K) | Ki (Procathepsin L) | Ratio Ki (Homo sapiens [1]) | Ratio Ki (Homo sapiens [2]) | Activity [3] | Ratio Ki (Homo sapiens [4]) | SMILES |
| --- | --- | --- | --- | --- | --- | --- | --- | --- |
| 0.2 nM | 0.48 nM | 0.071 nM | 0.4 nM | – | – | – | – | CN(C#N)N(C)C(=O)[C@H](CC1CCCCC1)NC(=O)OCc1ccccc1 |
| 0.16 nM | 1.3 nM | 0.072 nM | 1.1 nM | – | – | – | – | CC(C)C[C@H](NC(=O)NCc1ccc(-c2noc(-c3cccs3)n2)cc1)C(=O)N(C)N(C)C#N |
| 0.17 nM | 2.8 nM | 0.11 nM | 1.4 nM | – | – | – | – | Cc1nc(-c2ccc(CNC(=O)N[C@@H](CC(C)C)C(=O)N(C)N(C)C#N)cc2)no1 |
| 0.51 nM | 0.68 nM | 0.14 nM | 0.16 nM | – | – | – | – | CN(C#N)N(C)C(=O)[C@H](Cc1ccccc1)NC(=O)OCc1ccccc1 |
| 0.2 nM | 0.65 nM | 0.011 nM | 0.39 nM | – | – | – | – | CC(C)C[C@H](NC(=O)NCc1ccccc1)C(=O)N(C)N(C)C#N |
| 0.16 nM | 1.3 nM | 0.017 nM | 0.045 nM | – | – | – | – | CC(C)C[C@H](NC(=O)Nc1ccccc1)C(=O)N(C)N(C)C#N |
| 0.33 nM | 0.43 nM | 0.064 nM | 0.9 nM | – | – | – | – | CC(C)C[C@H](NC(=O)OCc1ccccc1)C(=O)N(C)N(C)C#N |
| 0.83 nM | 0.88 nM | 0.46 nM | 2.6 nM | – | – | – | – | CC[C@H](C)[C@H](NC(=O)OCc1ccccc1)C(=O)N(C)N(C)C#N |
| 0.19 nM | 2.4 nM | 0.045 nM | 2 nM | – | – | – | – | Cc1nc(-c2ccc(NC(=O)N[C@@H](CC(C)C)C(=O)N(C)N(C)C#N)cc2)no1 |
| 0.15 nM | 0.36 nM | 0.032 nM | 0.22 nM | – | – | – | – | CC(C)C[C@H](NC(=O)c1ccc(-c2noc(-c3cccs3)n2)cc1)C(=O)N(C)N(C)C#N |
| 0.32 nM | 2.4 nM | 0.022 nM | 4.4 nM | – | – | – | – | CC(C)C[C@H](NC(=O)Nc1ccc(-c2noc(-c3cccs3)n2)cc1)C(=O)N(C)N(C)C#N |
